Assay results published in patent publication US10947252B2, “Inhibitors of KEAP1-Nrf2 protein-protein interaction” (Janssen Pharmaceutica NV, priority 2018, dated 2021).

What was measured:
[1] = test system: Glo-Response ARE-luc2P HEK293 cell line; test: ARE luciferase reporter cell-based assay; details: Homo sapiens, HEK293, 24 h, average of results obtained;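 note: luciferase signal tracks Nrf2 activation of the ARE once compounds disrupt KEAP1-Nrf2 binding, read with One-Glo reagent, DMSO serving as low control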
Method: The ARE assay utilizes a luciferase reporter cell line where the signal is proportional to NrF2 activation of the ARE. The cell line is commercially available from Promega and was prepared by stably transfecting HEK293 cells with a vector (pGL4.11) which contains the ARE response element upstream of a minimal promoter. The promoter drives expression of luc2 firefly luciferase gene. Upon disruption of KEAP1-Nrf2 binding by compound, Nrf2 translocates into the nucleus where it binds to the ARE and activates transcription of luciferase.
The materials used in this ARE assay are as follows: Glo-Response ARE-luc2P HEK293 cell line and One-Glo Luciferase Assay System were purchased from Promega (Madison, Wis.). Dulbecco's Modified Eagle medium ((DMEM), low glucose, GlutaMAX, pyruvate), fetal bovine serum (certified, heat inactivated), hygromycin B, Dulbecco's phosphate-buffered saline were purchased from Life Technologies (Grand Island, N.Y.). Penicillin, streptomycin solution (100×) and 0.05% trypsin-EDTA were purchased from Corning (Manassas, Va.). DMSO was purchased from EMD Millipore.
The ARE assay protocol is as follows: cells were maintained in growth medium (DMEM+10% FBS, 200 μg/mL hygromycin B, p-s) between 20-90% confluency by splitting twice per week. One day before the assay, cells were trypsinized, counted to determine viable cell count, and re-suspended in assay medium (DMEM+10% FBS, p-s) at 250,000 cells/mL. […] 100% DMSO was used as the low control. A 11-point dose series of the control compound was included on every plate. Compounds were spotted to an intermediate plate (Greiner #781280 V-bottom 384 well plate) using the Echo acoustic dispenser (Labscyte San Jose, Calif.). Spot size was 240 nL.
On the day of the assay, 60 mL per well of assay medium was added to the pre-spotted plate to make 2× compound stocks using the Combi (Thermo Waltham, Mass.). Compound and medium were mixed on the Janus and 20 mL of 2×compound stock was added to the cell plate which already contained 20 mL of assay medium from cell plating. […] The plates were returned to the tissue culture incubator for 24 hours.
The next day, luciferase activity was measured according to the manufacturer's protocol for One-Glo luciferase reagent. The plates were removed from the incubator and allowed to equilibrate to room temperature for 30 min. Forty microliters of One-Glo reagent (equilibrated to room temperature) was added per well using the Combi. The plates were mixed on an orbital shaker for 3 min. Luminescence was read on the BMG Pherastar multiplate reader (Cary, N.C.) using the luminescence protocol (1 sec interval).
The dose-response data were analyzed in Genedata Screener using 4PL nonlinear regression model. Raw luminescence counts as well as normalized values were used for data analysis.

[2] = biological target: Kelch domain of human KEAP1 (321-624 aa) (Homo sapiens (Human), UniProt Q14145); test: KEAP1 KELCH ThermoFluor binding assay; details: KEAP Kelch […], 1,8-ANS, pH 7.0, average of results obtained, read-out: Tf Kd;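 note: Ligand-induced melting temperature shift of E. coli-expressed KEAP1 Kelch protein, Kd estimated from concentration-response curves of ΔTm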
Sequence of Kelch domain of human KEAP1 (321-624 aa) (Q14145 321-624): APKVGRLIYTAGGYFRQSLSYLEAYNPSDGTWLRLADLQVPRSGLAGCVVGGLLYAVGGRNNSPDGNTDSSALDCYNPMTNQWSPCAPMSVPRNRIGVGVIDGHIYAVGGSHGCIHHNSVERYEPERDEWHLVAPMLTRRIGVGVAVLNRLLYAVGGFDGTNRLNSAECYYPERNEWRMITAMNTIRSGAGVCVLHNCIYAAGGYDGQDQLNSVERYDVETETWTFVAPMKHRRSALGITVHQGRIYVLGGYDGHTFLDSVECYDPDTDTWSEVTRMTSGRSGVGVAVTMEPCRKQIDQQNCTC
From the text: The shift in the melting point described as a ΔTm is proportional to the concentration and affinity of the ligand. The compound potency may be compared as a rank order of either ΔTm values at a single compound concentration or in terms of KD values, estimated from concentration response curves.
The protein was expressed in E. coli with 6His tag that was cleaved prior to receipt for use.
Protein (KEAP Kelch) and compound solutions were dispensed into black 384-well polypropylene PCR microplates (Abgene) and overlayed with silicone oil (1 μL, Fluka, type DC 200) to prevent evaporation.

Compound | EC50 [1] [nM] | Kd [2] [nM]
Cc1c([C@H](CC(=O)O)c2ccc(Cl)c(CN3CC4CCCCN4c4ncccc4S3(=O)=O)c2)ccn2c(C(F)(F)F)nnc12 (single isomer, unassigned) [Example 85, (*R)-3-(4-Chloro-3-(((*S)-5,5-dioxido-7,7a,8,9,10,11-hexahydro-6H-dipyrido[2,1-d:2′,3′-f][1,2,5]thiadiazepin-6-yl)methyl)phenyl)-3-(8-methyl-3-(trifluoromethyl)-[1,2,4]triazolo[4,3-a]pyridine-7-yl)propanoic Acid] | 1510 | 2.2
Cc1ccc([C@@H](c2ccn3c(C(F)(F)F)nnc3c2C)C(C)(C)C(=O)O)cc1CN1CC2(CCOCC2)Oc2nc(OCCCO)ccc2S1(=O)=O (single isomer, unassigned) [Example 50, (*S)-3-(3-((7′-(3-Hydroxypropoxy)-1′,1′-dioxido-2,3,5,6-tetrahydrospiro[pyran-4,4′-pyrido[2,3-b][1,4,5]oxathiazepin]-2′(3′H)-yl)methyl)-4-methylphenyl-2,2′-dimethyl-3-(8-methy-3-trifluoromethyl)-[1,2,4]triazolo[4,3-a]pyridine-7-yl)propanoic Acid] | 52 | < 1
Cc1ccc([C@H](CC(=O)O)c2ccc3c(nnn3C3CC3)c2C)cc1CN1C[C@H]2CCCCN2c2ncccc2S1(=O)=O (single isomer, unassigned) [Example 212, (*S)-3-(1-Cyclopropyl-4-methyl-1H-benzo[d][1,2,3]triazol-5-yl)-3-(3-(((*R)-5,5-dioxido-7,7a,8,9,10,11-hexahydro-6H-dipyrido[2,1-d:2′,3′-f][1,2,5]thiadiazepin-6-yl)methyl)-4-methylphenyl)propanoic Acid] | 3.7 | < 1
Cc1ncc([C@H](c2ccn3c(C(F)(F)F)nnc3c2C)C(C)(C)C(=O)O)cc1CN1C[C@@H]2CCCCN2c2ncc(C#N)cc2S1(=O)=O (single isomer, unassigned) [Example 657, (*S)-3-(5-(((*S)-3-Cyano-5,5-dioxido-7,7a,8,9,10,11-hexahydro-6H-dipyrido[2,1-d:2′,3′-f][1,2,5]thiadiazepin-6-yl)methyl)-6-methylpyridin-3-yl)-2,2-dimethyl-3-(8-methyl-3-(trifluoromethyl)-[1,2,4]triazolo[4,3-a]pyridin-7-yl)propanoic Acid] | 75 | < 1
Cc1ccc([C@H](CC(=O)O)c2ccn3c(C(F)F)nnc3c2C)cc1CN1CC2(CCOCC2)Oc2ncc(F)cc2S1(=O)=O (single isomer, unassigned) [Example 533, (*S)-3-(3-(Difluoromethyl)-8-methyl-[1,2,4]triazolo[4,3-a]pyridin-7-yl)-3-(3-((8′-fluoro-1′,1′-dioxido-2,3,5,6-tetrahydrospiro[pyran-4,4′-pyrido[2,3-b][1,4,5]oxathiazepin]-2′(3′H)-yl)methyl)-4-methylphenyl)propanoic Acid] | 31.3 | < 1
Cc1cnc2c(c1)S(=O)(=O)N(Cc1cc(C(c3ccc4c(nnn4C4CC4)c3C)C(C)(C)C(=O)O)cnc1C)CC1(CC1)O2 (racemic) [Example 394, (R/S)-3-(1-Cyclopropyl-4-methyl-1H-benzo[d][1,2,3]triazol-5-yl)-2,2-dimethyl-3-(6-methyl-5-((8′-methyl-1′,1′-dioxidospiro[cyclopropane-1,4′-pyrido[2,3-b][1,4,5]oxathiazepin]-2′(3′H)-yl)methyl)pyridin-3-yl)propanoic Acid] | 40.1 | < 1
Cc1ccc([C@@H](CC(=O)O)c2cc(OC3CC3)c3c(c2)nnn3C)cc1CN1C[C@H]2CCCN2c2ncccc2S1(=O)=O (single isomer, unassigned) [Example 6, (*R)-3-(7-Cyclopropoxy-1-methyl-1H-benzo[d][1,2,3]triazol-5-yl)-3-(3-(((R)-5,5-dioxido-7a,8,9,10-tetrahydropyrido[2,3-f]pyrrolo[2,1-d][1,2,5]thiadiazepin-6(7H)-yl)methyl)-4-methylphenyl)propanoic Acid] | 42 | 0.089
Cc1ccc([C@H](CC(=O)O)c2ccn3c(C)nnc3c2)cc1CN1C[C@H]2CCCN2c2ncccc2S1(=O)=O (single isomer, unassigned) [Example 163, (*S)-3-(3-(((R)-5,5-Dioxido-7a,8,9,10-tetrahydropyrido[2,3-f]pyrrolo[2,1-d][1,2,5]thiadiazepin-6(7H)-yl)methyl)-4-methylphenyl)-3-(3-methyl-[1,2,4]triazolo[4,3-a]pyridin-7-yl)propanoic Acid] | 2750 | < 1
Cc1ccc(C(CC(=O)O)c2ccn3c(C(F)F)nnc3c2C)cc1CN1CC2(COC2)Oc2ccccc2S1(=O)=O (centres unmarked) [Example 466, 3-(3-(Difluoromethyl)-8-methyl-[1,2,4]triazolo[4,3-a]pyridin-7-yl)-3-(3-((1,1-dioxidospiro[benzo[b][1,4,5]oxathiazepine-4,3′-oxetan]-2(3H)-yl)methyl)-4-methylphenyl)propanoic Acid] | 124 | < 1
Cc1ccc([C@@H](c2ccn3c(C(F)(F)F)nnc3c2C)C(C)(C)C(=O)O)cc1CN1CC2(CCOCC2)Oc2nc(N[C@@H](C)CCO)ccc2S1(=O)=O (single isomer, unassigned) [Example 121, (*S)-3-(3-((7′-(((S)-4-Hydroxybutan-2-yl)amino)-1′,1′-dioxido-2,3,5,6-tetrahydrospiro[pyran-4,4′-pyrido[2,3-b][1,4,5]oxathiazepin]-2′(3′H)-yl)methyl)-4-methylphenyl)-2,2-dimethyl-3-(8-methyl-3-(trifluoromethyl)-[1,2,4[triazolo[4,3-a]pyridine-7-yl)propanoic Acid] | 157 | < 1
Cc1ccc([C@H](c2ccn3c(C4CC4)nnc3c2C)C(C)(C)C(=O)O)cc1CN1CC2(CC2)Oc2nc(OCCN3CCCC3)c(C)cc2S1(=O)=O (single isomer, unassigned) [Example 664, (*R)-3-(3-Cyclopropyl-8-methyl-[1,2,4]triazolo[4,3-a]pyridin-7-yl)-2,2-dimethyl-3-(4-methyl-3-((8′-methyl-1′,1′-dioxido-7′-(2-(pyrrolidin-1-yl)ethoxy)spiro[cyclopropane-1,4′-pyrido[2,3-b][1,4,5]oxathiazepin]-2′(3′H)-yl)methyl)phenyl)propanoic Acid] | > 20000 | 1840
Cc1ccc([C@H](CC(=O)O)c2ccn3c(C(F)F)nnc3c2C)cc1CN1C[C@H]2CCCN2c2ncc(C#N)cc2S1(=O)=O (single isomer, unassigned) [Example 540, (*S)-3-(3-(((*R)-3-Cyano-5,5-dioxido-7a,8,9,10-tetrahydropyrido[2,3-f]pyrrolo[2,1-d][1,2,5]thiadiazepin-6(7H)-yl)methyl)-4-methylphenyl)-3-(3-(difluoromethyl)-8-methyl-[1,2,4]triazolo[4,3-a]pyridin-7-yl)propanoic Acid] | 26.7 | < 1
Cc1ccc([C@@H](CC(=O)O)c2ccn3c(C(F)(F)F)nnc3c2C)cc1CN1CC2(COC2)Oc2ccccc2S1(=O)=O (single isomer, unassigned) [Example 288, (*R)-3-(3-((1,1-dioxidospiro[benzo[b][1,4,5]oxathiazepine-4,3′-oxetan]-2(3H)-yl)methyl)-4-methylphenyl)-3-(8-methyl-3-(trifluoromethyl)-[1,2,4]triazolo[4,3-a]pyridin-7-yl)propanoic Acid] | 123 | < 1
